Laboratory results from publication PMC7359024, “Synthesis, Structure–Activity Relationship, and Mechanistic Studies of Aminoquinazolinones Displaying Antimycobacterial Activity” (ACS Infectious Diseases, 2020).
Values after ≈ are worked out from the molar mass of the structure shown. Where two headings read alike, the source gives them in different places.

What was measured:
Mtb H37Rv strain = assay: MIC90 determination in GASTE-Fe media (broth microdilution); format: cell-based, Mycobacterium tuberculosis; set-up: fold loss in activity/potency (MIC90): reference not given here
physchem = format: physicochemical; settings: for solubility: kinetic solubility, pH 7.4, HPLC method
Experimental: The kinetic solubility assay was performed using a miniaturised shake flask method. 10 mM stock solutions of each of the test compounds were used to prepare calibration standards (10-220μM) in DMSO. The same 10mM stock solutions were accurately dispensed in duplicate into 96-well plates and the DMSO dried down (MiVac GeneVac, 90 min, 37 °C). Thereafter, the samples were reconstituted (200 µM) in phosphate buffered saline (pH 7.4) and shaken (20 hours, 25 °C). The solutions were filtered and analysed by means of HPLC -DAD (Agilent 1200 Rapid Resolution HPLC with a diode array detector). […]

[1] = format: in vitro ADME; settings: for Metabolic Stability H (% Rem.): human liver microsomes; for Metabolic Stability M (% Rem.): mouse liver microsomes; for Metabolic Stability R (% Rem.): rat liver microsomes
Experimental: 3.2. Microsomal stability
The metabolic stability assay was performed in duplicate in a 96-well micro titre plate. The test compounds (0.1 μM) were incubated individually in mouse, rat and pooled human liver microsomes ((final protein concentration of 0.4 mg/mL; XenoTech, Lenexa, KS ), suspended in 0.1M phosphate buffer (pH 7.4) at 37 °C for predetermined time points, in the presence and absence of the cofactor NADPH (1 mM). Reactions were quenched by adding ice cold acetonitrile containing internal standard (carbamazepine, 0.0236 µg/mL). T he samples were centrifuged and test compound in the supernatant were analysed by means of LC -MS/MS (Agilent Rapid Resolution HPLC, AB SCIEX 4500 MS ). The relative loss of parent compound over time was monitored and plots (concentration vs. time) were prepared per compound to determine the first order rate constant for compound depletion. This was in turn used to calculate half-life, in vitro intrinsic clearance and in vivo hepatic extraction ratio. Metabolite searches were not conducted during the metabolic stability assay. 5

in vitro = settings: Chinese hamster
[2] = Mycobacterium tuberculosis, H37RV, 336 h, read-out: MIC90 GAST-Fe
[3] = Mycobacterium tuberculosis, H37RV, 336 h, Mtb H37Rv, replicating conditions, GASTE-Fe media, read 14 days after incubation, read-out: MIC90 GASTE-Fe

## C[S+]([O-])c1cccc(-c2ccc3nc(N)n(-c4ccc(C#N)cc4)c(=O)c3c2)c1 (stereo not shown) [compound 54]
Mtb H37Rv strain; [2]
  MIC90: 9.28 µM (≈ 3.72 µg/mL)
physchem; 25 °C, pH 7.4, aqueous buffer
  solubility: 16.3 µM (≈ 6.53 µg/mL)
physchem
  solubility: 16 µM (≈ 6.41 µg/mL)
[1]
  Metabolic Stability H (% Rem.): 92 % Rem.
  Metabolic Stability M (% Rem.): 91 % Rem.
  Metabolic Stability R (% Rem.): 98 % Rem.

## Nc1nc2ccc(-c3cncc(C(=O)N4CCOCC4)c3)cc2c(=O)n1-c1ccc(C(F)(F)F)cc1 [compound 17, 2-Amino-6-(5-(morpholine-4-carbonyl)pyridin-3-yl)-3-(4-(trifluoromethyl)phenyl)quinazolin-4(3H)-one]
Mtb H37Rv strain
  fold loss in activity/potency (MIC90): 15 fold
Mtb H37Rv strain; [3]
  MIC90: 83 µM (≈ 41.1 µg/mL)

## CS(=O)(=O)c1cccc(-c2ccc3ncn(-c4ccc(C(F)(F)F)cc4)c(=O)c3c2)c1 [compound 38, 6-(3-(Methylsulfonyl)phenyl)-3-(4-(trifluoromethyl)phenyl)quinazolin-4(3H)-one]
Mtb H37Rv strain
  fold loss in activity/potency (MIC90): 10 fold
Mtb H37Rv strain; [3]
  MIC90: 2.96 µM (≈ 1.32 µg/mL)
physchem; 25 °C, pH 7.4, aqueous buffer
  solubility: < 5 µM

## CC(C)(C)c1cccc(-c2ccc3nc(N)n(-c4ccc(C(F)(F)F)cc4)c(=O)c3c2)c1 [compound 26]
Mtb H37Rv strain; [3]
  MIC90: 10 µM (≈ 4.37 µg/mL)
In vitro
  IC50: > 100 µM

## C[S+]([O-])c1cccc(-c2ccc3nc(N)n(C4CCC(F)(F)CC4)c(=O)c3c2)c1 (stereo not shown) [compound 56]
Mtb H37Rv strain; [2]
  MIC90: 45.7 µM (≈ 19.1 µg/mL)
physchem; 25 °C, pH 7.4, aqueous buffer
  solubility: > 100 µM
physchem
  solubility: 125 µM (≈ 52.2 µg/mL)
[1]
  Metabolic Stability H (% Rem.): 95 % Rem.
  Metabolic Stability M (% Rem.): 83 % Rem.
  Metabolic Stability R (% Rem.): 81 % Rem.

## C[S+]([O-])c1cccc(-c2ccc3nc(N)n(-c4ccc(C(F)(F)F)nc4)c(=O)c3c2)c1 (stereo not shown) [compound 47, 2-Amino-6-(3-(methylsulfinyl)phenyl)-3-(6-(trifluoromethyl)pyridin-3-yl)quinazolin-4(3H)-one]
Mtb H37Rv strain; [2]
  MIC90: 0.922 µM (≈ 0.41 µg/mL)
physchem; 25 °C, pH 7.4, aqueous buffer
  solubility: < 5 µM
[1]
  Metabolic Stability H (% Rem.): 93 % Rem.
  Metabolic Stability M (% Rem.): 93 % Rem.
  Metabolic Stability R (% Rem.): 99 % Rem.

## C[S+]([O-])c1cccc(-c2ccc3nc(N)n(Cc4ccc(C(F)(F)F)cc4)c(=O)c3c2)c1 (stereo not shown) [compound 58]
Mtb H37Rv strain; [2]
  MIC90: > 31 µM
physchem; 25 °C, pH 7.4, aqueous buffer
  solubility: > 100 µM
physchem
  solubility: 104 µM (≈ 47.6 µg/mL)
[1]
  Metabolic Stability H (% Rem.): 52 % Rem.
  Metabolic Stability M (% Rem.): 69 % Rem.
  Metabolic Stability R (% Rem.): 61 % Rem.

## C[S+]([O-])c1cccc(-c2ccc3nc(N)n(-c4ccccc4)c(=O)c3c2)c1 (stereo not shown) [compound 35]
Mtb H37Rv strain; [2]
  MIC90: 33 µM (≈ 12.4 µg/mL)
Mtb H37Rv strain; read-out: MIC90 GAST-Fe
  MIC90: 33.4 µM (≈ 12.5 µg/mL)

## COc1cccc(-c2ccc3nc(N)n(-c4ccc(C(F)(F)F)cc4)c(=O)c3c2)c1 [compound 25]
Mtb H37Rv strain; [3]
  MIC90: 10 µM (≈ 4.11 µg/mL)

## CN(C)c1nc2ccc(-c3cccc(S(C)(=O)=O)c3)cc2c(=O)n1-c1ccc(C(F)(F)F)cc1 [compound 43, 2-(Dimethylamino)-6-(3-(methylsulfonyl)phenyl)-3-(4-(trifluoromethyl)phenyl)quinazolin-4(3H)-one]
Mtb H37Rv strain; Mtb H37Rv, replicating conditions, GASTE-Fe media, read 14 days after incubation, read-out: MIC90 GASTE-Fe
  MIC90: >125 µM
Mtb H37Rv strain; [3]
  MIC90: > 125 µM
physchem; 25 °C, pH 7.4, aqueous buffer
  solubility: 21.6 µM (≈ 10.5 µg/mL)
[1]
  Metabolic Stability H (% Rem.): 85 % Rem.
  Metabolic Stability M (% Rem.): 90 % Rem.
  Metabolic Stability R (% Rem.): 94 % Rem.

## NC(=O)c1cccc(-c2ccc3c(=O)n(-c4ccc(C(F)(F)F)cc4)c(N)nc3c2)c1 [compound 33]
Mtb H37Rv strain; [3]
  MIC90: 1.22 µM (≈ 0.518 µg/mL)
physchem; 25 °C, pH 7.4, aqueous buffer
  solubility: 58 µM (≈ 24.6 µg/mL)
physchem; pH 7.4, relative to comparator analogue
  fold improvement in solubility: 10 fold
[1]
  Metabolic Stability H (% Rem.): 96 % Rem.
  Metabolic Stability M (% Rem.): 92 % Rem.
  Metabolic Stability R (% Rem.): 93 % Rem.

## CNC(=O)c1cncc(-c2ccc3nc(N)n(-c4ccc(C(F)(F)F)cc4)c(=O)c3c2)c1 [compound 12]
Mtb H37Rv strain
  fold loss in activity/potency (MIC90): 10 fold
Mtb H37Rv strain; [3]
  MIC90: 9.22 µM (≈ 4.05 µg/mL)
physchem; 25 °C, pH 7.4, aqueous buffer
  solubility: 40 µM (≈ 17.6 µg/mL)
physchem
  solubility: 39 µM (≈ 17.1 µg/mL)
[1]
  Metabolic Stability H (% Rem.): 85 % Rem.
  Metabolic Stability M (% Rem.): 75 % Rem.
  Metabolic Stability R (% Rem.): 85 % Rem.

## C[S+]([O-])c1cccc(-c2ccc3nc(N)n(C4CCC(C(F)(F)F)CC4)c(=O)c3c2)c1 (stereo not shown) [compound 57]
Mtb H37Rv strain; [2]
  MIC90: 2.75 µM (≈ 1.24 µg/mL)

## C[S+]([O-])c1cccc(-c2ccc3nc(N)n(-c4ccc(O)cc4)c(=O)c3c2)c1 (stereo not shown) [compound 52]
Mtb H37Rv strain; [2]
  MIC90: > 125 µM

## C[S+]([O-])c1cccc(-c2ccc3nc(N)n(-c4ccc(S(C)(=O)=O)cc4)c(=O)c3c2)c1 (stereo not shown) [compound 51]
Mtb H37Rv strain; [2]
  MIC90: > 125 µM
